Experimental data: the supplement of paper PMC10307832

Legend:
Test in all cases: relative viability (nuclei count vs DMSO), 5 days (fraction); higher = more cells survive
[1] = compound: Cc1ccc(C(=O)Nc2cccc(C(F)(F)F)c2)cc1Nc1cncc(C(N)=O)c1 [ALW-II-49-7] + O=C(c1cc(Cc2n[nH]c(=O)c3ccccc23)ccc1F)N1CCN(C(=O)C2CC2)CC1 [Olaparib] (partner 8 µM)
How it was run: (§1)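 A single step with final 0.05% Triton X-100, 1% formaldehyde and 1 ug/ml Hoechst fixed the cells and stained nuclei 5 days after treatment. Lung cancer cell lines in 1536-well plates had been treated by pin tool the day after seeding with one drug alone or a fixed anchor-drug dose plus five library-drug doses (not always all listed) in √10 steps, and nuclei were counted on 4× images. Relative viability is the ratio of nuclei in treated wells to nuclei in vehicle wells, taken as the median of duplicate plates.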

[2] = compound: Cc1ccc(C(=O)Nc2cccc(C(F)(F)F)c2)cc1Nc1cncc(C(N)=O)c1 [ALW-II-49-7] + CC(=O)c1c(C)c2cnc(Nc3ccc(N4CCNCC4)cn3)nc2n(C2CCCC2)c1=O [Palbociclib] (partner 0.5 µM)
How it was run: as §1

[3] = compound: Cc1nc(Nc2ncc(C(=O)Nc3c(C)cccc3Cl)s2)cc(N2CCN(CCO)CC2)n1 [Dasatinib] + CS(=O)(=O)N1CCN(Cc2cc3nc(-c4cccc5[nH]ncc45)nc(N4CCOCC4)c3s2)CC1 [Pictilisib] (partner 1 µM)
How it was run: as §1

[4] = compound: Cc1nc(Nc2ncc(C(=O)Nc3c(C)cccc3Cl)s2)cc(N2CCN(CCO)CC2)n1 [Dasatinib] + NC(=O)Nc1cc(-c2cccc(F)c2)sc1C(=O)N[C@H]1CCCNC1 [AZD7762] (partner 0.2 µM)
How it was run: as §1

Row | Cell Line | relative viability ([1]; first compound 0.08 µM) | relative viability ([1]; first compound 0.253 µM) | relative viability ([1]; first compound 0.8 µM) | relative viability ([1]; first compound 2.53 µM) | relative viability ([1]; first compound 8 µM) | relative viability ([2]; first compound 0.08 µM) | relative viability ([2]; first compound 0.253 µM) | relative viability ([2]; first compound 0.8 µM) | relative viability ([2]; first compound 2.53 µM) | relative viability ([2]; first compound 8 µM) | relative viability ([3]; first compound 0.005 µM) | relative viability ([3]; first compound 0.01581 µM) | relative viability ([3]; first compound 0.05 µM) | relative viability ([3]; first compound 0.1581 µM) | relative viability ([3]; first compound 0.5 µM) | relative viability ([4]; first compound 0.005 µM) | relative viability ([4]; first compound 0.01581 µM) | relative viability ([4]; first compound 0.05 µM) | relative viability ([4]; first compound 0.1581 µM) | relative viability ([4]; first compound 0.5 µM)
1 | NCI-H2126 | 0.823 | 0.882 | 0.979 | 0.891 | 0.87 | 0.367 | 0.332 | 0.337 | 0.365 | 0.374 | 0.512 | 0.446 | 0.443 | 0.387 | 0.288 | 0.971 | 0.847 | 0.98 | 0.885 | 0.511
2 | NCI-H2170 | 0.76 | 0.595 | 0.562 | 0.535 | 0.603 | 0.367 | 0.451 | 0.381 | 0.403 | 0.364 | 0.286 | 0.234 | 0.257 | 0.265 | 0.203 | 0.864 | 0.779 | 0.633 | 0.409 | 0.278
3 | NCI-H2347 | 0.596 | 0.568 | 0.562 | 0.545 | 0.556 | 0.528 | 0.452 | 0.43 | 0.432 | 0.478 | 0.419 | 0.328 | 0.316 | 0.493 | 0.347 | 0.614 | 0.538 | 0.549 | 0.296 | 0.282
4 | NCI-H2405 | 0.856 | 0.97 | 0.86 | 0.811 | 0.785 | 0.507 | 0.591 | 0.488 | 0.532 | 0.468 | 0.353 | 0.294 | 0.261 | 0.197 | 0.16 | 0.656 | 0.514 | 0.368 | 0.212 | 0.228
5 | NCI-H3122 | 0.636 | 0.657 | 0.642 | 0.705 | 0.537 | 0.223 | 0.212 | 0.191 | 0.397 | 0.227 | 0.704 | 0.753 | 0.755 | 0.614 | 0.445 | 0.991 | 0.982 | 0.951 | 0.876 | 0.643
6 | PC-3 [JPC-3] | 0.693 | 1.2 | 1.24 | 1.05 | 1 | 0.536 | 0.595 | 0.546 | 0.561 | 0.558 | 0.881 | 0.676 | 0.734 | 0.706 | 0.317 | 0.98 | 1.04 | 0.755 | 0.528 | 0.427
7 | PC-14 | 0.282 | 0.227 | 0.264 | 0.253 | 0.273 | 0.454 | 0.568 | 0.471 | 0.551 | 0.41 | 0.631 | 0.458 | 0.529 | 0.232 | 0.0479 | 0.405 | 0.468 | 0.34 | 0.401 | 0.112
8 | RERF-LC-KJ | 0.988 | 1.06 | 0.874 | 0.856 | 0.725 | 1.04 | 1.07 | 1.04 | 0.998 | 1.08 | 0.543 | 0.518 | 0.53 | 0.398 | 0.403 | 1.06 | 0.824 | 0.889 | 0.761 | 0.6
